Assay results as given in patent US10828317B2, “Method of treating bacterial infections” (priority 2016, dated 2020).
Where two headings read alike, the source gives them in different places. Values belong to the molecule of their own block, whether it stands above or below them.

Tests used:
[1] = tested on: A. baumannii EN007; assay: MIC, WT (EN007 = EN0007); type: cell-based, Acinetobacter baumannii
[2] = tested on: E. coli EN001; assay: MIC, WT (EN001 = EN0001, ATCC 25922); type: cell-based, Escherichia coli; details: combination didanosine+trimethoprim+uridine, Table 20
[3] = tested on: A. pittii or A. nosocomialis EN0180; assay: MIC; type: cell-based, Acinetobacter pittii or nosocomialis; details: combination didanosine+trimethoprim+uridine, Table 10; read-out: MIC
[4] = tested on: A. baumannii EN016; assay: MIC, WT; type: cell-based, Acinetobacter baumannii; details: Acinetobacter baumannii, EN016, combination didanosine+trimethoprim+uridine, Table 10; read-out: MIC
[5] = tested on: E. aerogenes EN0461; assay: MIC; type: cell-based, Enterobacter aerogenes; details: Klebsiella aerogenes, EN0461, combination didanosine+trimethoprim+uridine, Table 10; read-out: MIC
[6] = tested on: P. aeruginosa EN0459; assay: MIC; type: cell-based, Pseudomonas aeruginosa; details: Pseudomonas aeruginosa, EN0459, combination didanosine+trimethoprim+uridine, Table 10; read-out: MIC
[7] = tested on: S. epidermidis EN0456; assay: MIC; type: cell-based, Staphylococcus epidermidis; details: Staphylococcus epidermidis, EN0456, combination didanosine+trimethoprim+uridine, Table 10; read-out: MIC
[8] = tested on: P. aeruginosa EN014; assay: MIC, WT; type: cell-based, Pseudomonas aeruginosa; details: Pseudomonas aeruginosa, EN014, combination didanosine+trimethoprim+uridine, Table 10; read-out: MIC
[9] = tested on: K. oxytoca EN0392; assay: MIC; type: cell-based; details: Klebsiella oxytoca, EN0392, combination didanosine+trimethoprim+uridine, Table 10
[10] = tested on: S. aureus EN008; assay: MIC, Gram-positive control; type: cell-based, Staphylococcus aureus; details: Staphylococcus aureus, EN008, combination didanosine+trimethoprim+uridine, Table 10; read-out: MIC
[11] = tested on: P. aeruginosa EN004; assay: MIC, WT (EN004 = EN0004); type: cell-based, Pseudomonas aeruginosa
[12] = tested on: E. coli EN012; assay: MIC, WT; type: cell-based, Escherichia coli; details: Escherichia coli, EN012, combination didanosine+trimethoprim+uridine, Table 10; read-out: MIC
[13] = tested on: P. aeruginosa EN0460; assay: MIC; type: cell-based, Pseudomonas aeruginosa; details: Pseudomonas aeruginosa, EN0460, combination didanosine+trimethoprim+uridine, Table 10; read-out: MIC
[14] = tested on: E. coli EN0235; assay: microbe, parasite or virus in culture; type: cell-based; details: Escherichia coli, EN0235, combination didanosine+trimethoprim+uridine, Table 20
[15] = tested on: E. coli EN0136; assay: MIC, ESBL (CTX-M-2); type: cell-based; details: Escherichia coli, EN0136, combination didanosine+trimethoprim+uridine, Table 20; read-out: MIC
[16] = tested on: K. pneumoniae EN0463; assay: MIC; type: cell-based, Klebsiella pneumoniae; details: Klebsiella pneumoniae, EN0463, combination didanosine+trimethoprim+uridine, Table 10; read-out: MIC
[17] = tested on: K. pneumoniae EN006; assay: MIC, WT (EN006 = EN0006, ATCC 13883); type: cell-based, Klebsiella pneumoniae
[18] = tested on: P. aeruginosa EN0422; assay: MIC; type: cell-based, Pseudomonas aeruginosa; details: Pseudomonas aeruginosa, EN0422, combination didanosine+trimethoprim+uridine, Table 10; read-out: MIC
[19] = tested on: Citrobacter sp. EN0465; assay: MIC; type: cell-based; details: Citrobacter, SP.EN0465, combination didanosine+trimethoprim+uridine, Table 10; read-out: MIC
[20] = tested on: S. typhimurium EN0466; assay: MIC; type: cell-based; details: Salmonella enterica, combination didanosine+trimethoprim+uridine, Table 10
[21] = tested on: P. mirabilis ST19 EN0445; assay: MIC; type: cell-based, Proteus mirabilis; details: Proteus mirabilis, ST19EN0445, combination didanosine+trimethoprim+uridine, Table 10; read-out: MIC
[22] = tested on: S. aureus V86; assay: MIC; type: cell-based; details: Staphylococcus aureus, V86; Mupirocin resistant isolate; read-out: MIC (resistance pattern)
[23] = tested on: S. aureus V321; assay: MIC; type: cell-based; details: Staphylococcus aureus, Mupirocin resistant isolate, read-out: MIC (resistance pattern)
[24] = tested on: S. aureus V55; assay: MIC; type: cell-based; details: Staphylococcus aureus, Mupirocin resistant isolate, read-out: MIC (resistance pattern)
[25] = tested on: S. aureus V308; assay: MIC; type: cell-based; details: Staphylococcus aureus, V308; Mupirocin resistant isolate; read-out: MIC (resistance pattern)
[26] = combination didanosine+trimethoprim+uridine, Table 20

Structure (SMILES): O=c1[nH]cnc2c1ncn2[C@H]1CC[C@@H](CO)O1 [Didanosine, didanosine]
MIC ([1]; Acinetobacter baumannii, EN007, combination didanosine+trimethoprim+uridine, Table 10, read-out: MIC): > 4 mg/L | MIC [1, 26]: >4 mg/L | MIC [2]: 0.25 mg/L | MIC [3]: > 4 mg/L | MIC [4]: > 4 mg/L | MIC [5]: 0.5 mg/L | MIC [6]: > 4 mg/L | MIC [7]: 0.064 mg/L | MIC [8]: > 4 mg/L | MIC [9]: 0.25 mg/L | MIC [10]: 0.5 mg/L | MIC ([11]; Pseudomonas aeruginosa, EN004, combination didanosine+trimethoprim+uridine, Table 10, read-out: MIC): > 4 mg/L | MIC [11, 26]: >4 mg/L | MIC [12]: 0.064 mg/L | MIC [13]: > 4 mg/L | MIC [14]: 0.125 mg/L | MIC [15]: > 4 mg/L | MIC [16]: 0.25 mg/L | MIC ([17]; Klebsiella pneumoniae, EN006, combination didanosine+trimethoprim+uridine, Table 10, read-out: MIC): 0.5 mg/L | MIC [17, 26]: 0.5 mg/L | MIC [18]: > 4 mg/L | MIC [19]: > 4 mg/L | MIC [20]: 0.25 mg/L | MIC [21]: 1 mg/L

MIC [22]: > 256 mg/L | MIC [23]: > 256 mg/L | MIC [24]: > 256 mg/L | MIC [25]: > 256 mg/L
Structure (SMILES): C/C(=C\C(=O)OCCCCCCCCC(=O)O)C[C@@H]1OC[C@H](C[C@@H]2O[C@H]2[C@@H](C)[C@H](C)O)[C@@H](O)[C@H]1O [Mupirocin]
